Results: patent publication US20090048258A1, “Amide Compound” (priority 2005, published 2009)

What follows are molecules tested against T1, Human DGAT1 (Homo sapiens, UniProt O75907) (assay: DGAT inhibitory activity: [14C]-triglyceride synthesis by DGAT1 high expression Sf9 microsome). Settings: Table 1, 25 μM dioleoylglycerol, 25 μM [14C]-Oleoyl-CoA, 32° C., 15 min, read-out: DGAT inhibitory activity (according to IC50).
T1 construct: my translation of the primer: M-G-DYKDDDD-GDRGSSRRR) (N); made in house; host or cells: Sf9 insect cells (recombinant baculovirus BAC-DGAT1, pFASTBAC1); microsome fraction
T1 sequence (O75907 1-488): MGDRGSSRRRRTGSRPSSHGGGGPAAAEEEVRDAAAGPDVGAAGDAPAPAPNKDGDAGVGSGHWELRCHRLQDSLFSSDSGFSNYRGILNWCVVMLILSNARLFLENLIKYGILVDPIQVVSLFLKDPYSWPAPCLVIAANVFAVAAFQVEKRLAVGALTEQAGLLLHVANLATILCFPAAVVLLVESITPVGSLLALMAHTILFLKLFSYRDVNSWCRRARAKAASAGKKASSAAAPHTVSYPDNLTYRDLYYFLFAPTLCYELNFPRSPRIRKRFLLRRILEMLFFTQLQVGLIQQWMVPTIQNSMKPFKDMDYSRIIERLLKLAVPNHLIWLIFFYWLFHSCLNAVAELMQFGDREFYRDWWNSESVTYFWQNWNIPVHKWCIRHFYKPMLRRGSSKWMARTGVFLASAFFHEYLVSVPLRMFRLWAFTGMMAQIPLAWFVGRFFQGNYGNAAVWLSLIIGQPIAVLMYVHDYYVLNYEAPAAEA
Format: biochemical
Description: The primer base sequence is shown below.
The PCR reaction was conducted using a KOD-plus kit (TOYOBO). The obtained PCR product was electrophoresed on agarose gel (1%), the DNA fragment amplified by PCR was recovered from the gel, and then digested with restriction enzymes EcoRI and SpeI. […] Furthermore, using BAC-TO-BAC Baculovirus Expression System (Invitrogen), recombinant baculovirus BAC-DGAT1 was prepared.
SF9 cells were sown at 1×10^6 cells/ml on Sf-900II SEM medium (1 L, Invitrogen) containing 10% fetal calf serum (Trace), 50 mg/L gentamicin (Invitrogen) and 0.1% Pluronic F-68 (Invitrogen), and shaking culture was performed using a 2 L volume Erlenmeyer at 27° C., 100 rpm. After culturing for 24 hr, recombinant baculovirus BAC-DGAT1 (6.7 mL) was added, and the mixture was further cultured for 3 days. The culture medium was centrifuged at 2,000 rpm for 5 min to give virus-infected cells. The infected cells were washed with a phosphate buffered saline (Invitrogen), centrifuged under the same conditions, and the cells were preserved at −80° C. The cryopreserved cells were thawed in ice, suspended in buffer A (50 mM Tris buffer (30 mL, pH 7.4) containing 20% glycerol, 0.15 M NaCl) supplemented with Complete Protease Inhibitor (Boehringer), and ruptured 3 times with a Polytron homogenizer (Kinematica) at 20,000 rpm for 30 sec. The Sf9 microsome fractions were obtained by a conventional method and cryopreserved at −80° C. as a DGAT1 high expression Sf9 microsome.
As a DGAT1 reaction buffer, a solution having a composition of 100 mM Tris-HCl (pH 7.5), 250 mM sucrose, 150 mM MgCl2, 0.01% bovine serum albumin (BSA) was used. […] A mixture of 300 μL of chloroform:methanol (=1:2) was added to the reaction mixture to quench the reaction. The reaction mixture was sufficiently mixed and saline (200 μL) was added to partition the mixture between a chloroform layer (lower layer) and an aqueous layer (upper layer). The chloroform layer (50 μL) was spotted on a thin layer chromatography silica gel plate (TLC plate, Merck) and developed with a solvent (n-hexane:diethyl ether:ethyl acetate:acetic acid=74:15:15:1). The developed TLC plate was dried, contacted with a BAS imaging plate (manufactured by FUJIFILM) and measured with BAS2500 (manufactured by FUJIFILM) 16 hr later to numerically show the amount of [^14C]-triglyceride (TG amount) produced during the reaction. The inhibitory rate was calculated by the following formula:
Inhibitory rate (%)=(1−(TG amount in the case with addition of test compound−blank TG amount)/(control TG amount−blank TG amount))×100
The count of the triglyceride produced in the solution reacted without addition of the test compound was used as a “control TG amount”, and the count of the triglyceride produced in the solution reacted without addition of the test compound and DGAT1 high expression Sf9 microsome was used as a “blank TG amount”.
For `CCOc1ccc(C(=O)CCC(=O)Nc2nc(-c3ccccc3)c(Cc3ccccc3)s2)cc1/C=C/C(=O)O` [Example 31, (2E)-3-(5-{4-[(5-benzyl-4-phenyl-1,3-thiazol-2-yl)amino]-4-oxobutanoyl}-2-ethoxyphenyl)acrylic acid], the IC50 was 50 to 500 nM.
`COCOc1ccc(C(=O)CCC(=O)Nc2nc(-c3ccccc3)c(Cc3ccccc3)s2)cc1` [Example 32, N-(5-benzyl-4-phenyl-1,3-thiazol-2-yl)-4-oxo-4-[4-(methoxymethoxy)phenyl]butanamide] gave an IC50 of 10 to 50 nM.
`O=C(CCC(=O)c1ccc(O)cc1)Nc1nc(-c2ccccc2)c(Cc2ccccc2)s1` [Example 33, N-(5-benzyl-4-phenyl-1,3-thiazol-2-yl)-4-(4-hydroxyphenyl)-4-oxobutanamide] gave an IC50 of 50 to 500 nM.
With `CCOC(=O)Cc1ccc(C(=O)CCC(=O)Nc2nc(-c3ccccc3)c(Cc3ccccc3)s2)cc1` [Example 34] the IC50 was 50 to 500 nM.
For `O=C(O)Cc1ccc(C(=O)CCC(=O)Nc2nc(-c3ccccc3)c(Cc3ccccc3)s2)cc1` [Example 35], the IC50 was 500 to 10000 nM.
With `CCOc1ccc(C(=O)CCC(=O)Nc2nc(-c3ccccc3)c(Cc3ccccc3)s2)cc1Cl` [Example 36, N-(5-benzyl-4-phenyl-1,3-thiazol-2-yl)-4-(3-chloro-4-ethoxyphenyl)-4-oxobutanamide] the IC50 was no more than 10 nM.
`CCOC(=O)COc1ccc(C(=O)CCC(=O)Nc2nc(-c3ccccc3)c(Cc3ccccc3)s2)cc1` [Example 37] showed an IC50 of 50 to 500 nM.
`O=C(O)COc1ccc(C(=O)CCC(=O)Nc2nc(-c3ccccc3)c(Cc3ccccc3)s2)cc1` [Example 38] showed an IC50 of 500 to 10000 nM.
With `CCOc1ccc(C(=O)CCC(=O)Nc2ccc(CN3CCOCC3)c(-c3ccccc3)c2)cc1OCC` [Example 39, 4-(3,4-diethoxyphenyl)-N-(6-(morpholin-4-ylmethyl)biphenyl-3-yl]-4-oxobutanamide] the IC50 was 500 to 10000 nM.
`CCOc1cc(NC(=O)CCC(=O)c2ccc(OCC)c(OCC)c2)nc(-c2ccccc2)c1` [Example 40, 4-(3,4-diethoxyphenyl)-N-(4-ethoxy-6-phenylpyridin-2-yl)-4-oxobutanamide] gave an IC50 of 50 to 500 nM.
Molecule `CCOc1ccc(C(=O)CCC(=O)Nc2cc(OCCC(C)C)cc(-c3ccccc3)n2)cc1OCC` [Example 41, 4-(3,4-diethoxyphenyl)-N-(4-(3-methylbutoxy)-6-phenylpyridin-2-yl)-4-oxobutanamide] has an IC50 of 50 to 500 nM.
`CCOc1ccc(C(=O)CCC(=O)Nc2cc(OCc3ccccc3)cc(-c3ccccc3)n2)cc1OCC` [Example 42, 4-(3,4-diethoxyphenyl)-N-(4-(benzyloxy)-6-phenylpyridin-2-yl)-4-oxobutanamide] gave an IC50 of 50 to 500 nM.
Work on `CCOc1ccc(C(=O)CCC(=O)Nc2cc(-c3ccc(F)cc3)cc(-c3ccccc3)n2)cc1OCC` [Example 43, 4-(3,4-diethoxyphenyl)-N-(4-(4-fluorophenyl)-6-phenylpyridin-2-yl)-4-oxobutanamide] yielded an IC50 of 50 to 500 nM.
For `CCOc1ccc(C(=O)CCC(=O)Nc2cc(-c3ccccc3)c(Cc3ccccc3)s2)cc1` [Example 44, N-(5-benzyl-4-phenyl-2-thienyl)-4-(4-ethoxyphenyl)-4-oxobutanamide], the IC50 was 50 to 500 nM.
Work on `CCOc1cccc(C(=O)CCC(=O)Nc2cc(-c3ccccc3)c(Cc3ccccc3)s2)c1` [Example 45, N-(5-benzyl-4-phenyl-2-thienyl)-4-(3-ethoxyphenyl)-4-oxobutanamide] yielded an IC50 of 50 to 500 nM.
In the case of `CCOc1ccc(C(=O)CCC(=O)Nc2cc(-c3ccccc3)c(CC3CCCCC3)s2)cc1OCC` [Example 46, N-(5-(cyclohexylmethyl)-4-phenyl-2-thienyl)-4-(3,4-diethoxyphenyl)-4-oxobutanamide], the IC50 is reported as 50 to 500 nM.
Work on `CCOc1ccc(C(=O)CCC(=O)Nc2cc(-c3ccccc3)c(Cc3ccc(Br)cc3)s2)cc1OCC` [Example 47, N-[5-(4-bromobenzyl)-4-phenyl-2-thienyl]-4-(3,4-diethoxyphenyl)-4-oxobutanamide] yielded an IC50 of 10 to 50 nM.
`COc1ccc(C(=O)CCC(=O)Nc2cc(-c3ccccc3)c(Cc3ccccc3)s2)cc1OC` [Example 48, N-(5-benzyl-4-phenyl-2-thienyl)-4-(3,4-dimethoxyphenyl)-4-oxobutanamide] showed an IC50 of 10 to 50 nM.
With `O=C(CCC(=O)c1ccc2c(c1)CCO2)Nc1cc(-c2ccccc2)c(Cc2ccccc2)s1` [Example 49, N-(5-benzyl-4-phenyl-2-thienyl)-4-(2,3-dihydro-1-benzofuran-5-yl)-4-oxobutanamide] the IC50 was 10 to 50 nM.
`CCOc1cc(C)c(C(=O)CCC(=O)Nc2cc(-c3ccccc3)c(Cc3ccccc3)s2)cc1OCC` [Example 50, N-(5-benzyl-4-phenyl-2-thienyl) -4-(4,5-diethoxy-2-methylphenyl)-4-oxobutanamide] was tested, and the IC50 was 10 to 50 nM.
Molecule `CCOC(=O)/C=C/c1ccc(Cc2sc(NC(=O)CCC(=O)c3ccc(OCC)c(OCC)c3)cc2-c2ccccc2)cc1` [Example 51, ethyl (2E)-3-{4-[(5-{[4-(3,4-diethoxyphenyl)-4-oxobutanoyl]amino}-3-phenyl-2-thienyl)methyl]phenyl}acrylate] has an IC50 of 50 to 500 nM.
For `CCOC(=O)c1sc(NC(=O)CCC(=O)c2ccc(OCC)c(OCC)c2)cc1-c1ccccc1` [Example 52, ethyl 5-{[4-(3,4-diethoxyphenyl)-4-oxobutanoyl]amino}-3-phenylthiophene-2-carboxylate], the IC50 was 50 to 500 nM.
Molecule `COc1ccc(C(=O)CCC(=O)Nc2cc(-c3ccccc3)c(Cc3ccccc3)s2)cc1CCCOC(C)=O` [Example 53, 3-(5-{4-[(5-benzyl-4-phenyl-2-thienyl)amino]-4-oxobutanoyl}-2-methoxyphenyl)propyl acetate] has an IC50 of 50 to 500 nM.
With `COc1ccc(C(=O)CCC(=O)Nc2cc(-c3ccccc3)c(Cc3ccccc3)s2)cc1CCCO` [Example 54, N-(5-benzyl-4-phenyl-2-thienyl)-4-[3-(3-hydroxypropyl)-4-methoxyphenyl]-4-oxobutanamide] the IC50 was 50 to 500 nM.
With `CCc1cc(C(=O)CCC(=O)Nc2cc(-c3ccccc3)c(Cc3ccccc3)s2)ccc1OC` [Example 55, N-(5-benzyl-4-phenyl-2-thienyl)-4-(3-ethyl-4-methoxyphenyl)-4-oxobutanamide] the IC50 was 50 to 500 nM.
`CCOc1ccc(C(=O)CCC(=O)Nc2cc(-c3ccccc3)c(C(=O)OC(C)(C)C)s2)cc1OCC` [Example 56, tert-butyl 5-{[4-(3,4-diethoxyphenyl)-4-oxobutanoyl]amino}-3-phenylthiophene-2-carboxylate] was tested, and the IC50 was 50 to 500 nM.
`CCOc1ccc(C(=O)C(C)CC(=O)Nc2nc(-c3ccccc3)c(Cc3ccccc3)s2)cc1OCC` (stereo not drawn) [Example 57, N-(5-benzyl-4-phenyl-1,3-thiazol-2-yl)-4-(3,4-diethoxyphenyl)-3-methyl-4-oxobutanamide] showed an IC50 of no more than 10 nM.
Work on `CCCCc1sc(NC(=O)CCC(=O)c2ccc(OCC)c(OCC)c2)cc1-c1ccccc1` [Example 58, N-(5-butyl-4-phenyl-2-thienyl)-4-(3,4-diethoxyphenyl)-4-oxobutanamide] yielded an IC50 of 50 to 500 nM.
With `CCOc1ccc(C(=O)CCC(=O)Nc2cc(-c3ccccc3)sc2-c2ccccc2)cc1` [Example 60, N-(2,5-diphenyl-3-thienyl)-4-(4-ethoxyphenyl)-4-oxobutanamide] the IC50 was 500 to 10000 nM.
Molecule `CCOc1ccc(C(=O)NCCNC(=O)c2cc(-c3ccccc3)n(-c3ccc(OC(F)(F)F)cc3)c2C)cc1` [Example 62, N-{2-[(4-ethoxybenzoyl)amino]ethyl}-2-methyl-5-phenyl-1-[4-(trifluoromethoxy)phenyl]-1H-pyrrole-3-carboxamide] has an IC50 of 50 to 500 nM.
